# Measurements reported in patent publication US10398672B2, “Methods and compositions for targeting cancer stem cells” (Whitehead Institute for Biomedical Research, priority 2014, dated 2019).
# Tested on: NAMEC cells transformed with Ras
# Conditions: mouse, in vivo
substance,measurement,value
cholera toxin,loss of tumor-initiating ability compared to untreated NAMEC cells,100 fold
